According to patent publication US20140323418A1, “SELECTIVE KINASE INHIBITORS” (PORTOLA PHARMACEUTICALS, INC., priority 2011, published 2014):

molecular target: T1, full length active recombinant SYK enzyme (Homo sapiens, UniProt P43405); experiment: Inhibition of Syk tyrosine phosphorylation activity (LANCE TR-FRET kinase assay); format: biochemical; details: 1 nM SYK, 550 nM substrate, 100 μM ATP, 1 hour room temperature
T1 construct: full length active recombinant SYK enzyme (Millipore, Calif.); purchased Millipore

Row | IC50 [nM] | Compound
1 | 1 to 10 | NC(=O)c1cnc(N[C@H](C2CC2)C2(N)CC2)nc1Nc1cccc(-n2cccn2)c1 [Example 151, (R)-4-(3-(1H-pyrazol-1-yl)phenylamino)-2-(1-(1-aminocyclopropyl)(cyclopropyl)methylamino)pyrimidine-5-carboxamide]
2 | 1 to 10 | NC(=O)c1cnc(N[C@H](C2CC2)C2(N)CC2)nc1Nc1cnc2ccccc2c1 [Example 152, (R)-2-(1-(1-aminocyclopropyl)(cyclopropyl)methylamino)-4-(quinolin-3-ylamino)pyrimidine-5-carboxamide]
3 | 10 to 100 | NC(=O)c1cnc(N[C@H](C2CC2)C2(N)CC2)nc1Nc1ccc2c(c1)CCCN2 [Example 153, (R)-2-(1-(1-aminocyclopropyl)(cyclopropyl)methylamino)-4-(1,2,3,4-tetrahydroquinolin-6-ylamino)pyrimidine-5-carboxamide]
4 | 1 to 10 | CC[C@@H](Nc1ncc(C(N)=O)c(Nc2cnc3ccccc3c2)n1)C1(N)CC1 [Example 154, (R)-2-(1-(1-aminocyclopropyl)propylamino)-4-(quinolin-3-ylamino)pyrimidine-5-carboxamide]
5 | 1 to 10 | NC(=O)c1cnc(N[C@H](C2CC2)C2(N)CC2)nc1Nc1ccc2ncccc2c1 [Example 155, (R)-2-(1-(1-aminocyclopropyl)(cyclopropyl)methylamino)-4-(quinolin-6-ylamino)pyrimidine-5-carboxamide]
6 | 1 to 10 | NC(=O)c1cnc(N[C@H](C2CC2)C2(N)CC2)nc1Nc1cccc(F)c1 [Example 156, (R)-2-(1-(1-aminocyclopropyl)(cyclopropyl)methylamino)-4-(3-fluorophenylamino)pyrimidine-5-carboxamide]
7 | 10 to 100 | NC(=O)c1cnc(N[C@H](C2CC2)C2(N)CC2)nc1Nc1cc(F)cc(F)c1 [Example 157, (R)-2-(1-(1-aminocyclopropyl)(cyclopropyl)methylamino)-4-(3,5-difluorophenylamino)pyrimidine-5-carboxamide]
8 | 1 to 10 | CC(C)[C@@H](Nc1ncc(C(N)=O)c(Nc2cnc3ccccc3c2)n1)C1(N)CC1 [Example 158, (R)-2-(1-(1-aminocyclopropyl)-2-methylpropylamino)-4-(quinolin-3-ylamino)pyrimidine-5-carboxamide]
9 | 1 to 10 | CC(C)[C@@H](Nc1ncc(C(N)=O)c(Nc2cccc(F)c2)n1)C1(N)CC1 [Example 159, (R)-2-(1-(1-aminocyclopropyl)-2-methylpropylamino)-4-(3-fluorophenylamino)pyrimidine-5-carboxamide]
10 | 10 to 100 | CC(C)[C@@H](Nc1ncc(C(N)=O)c(Nc2cc(F)cc(F)c2)n1)C1(N)CC1 [Example 160, (R)-2-(1-(1-aminocyclopropyl)-2-methylpropylamino)-4-(3,5-difluorophenylamino)pyrimidine-5-carboxamide]
11 | 1 to 10 | Cn1ncc2c(Nc3nc(N[C@H](C4CC4)C4(N)CC4)ncc3C(N)=O)cccc21 [Example 162, (R)-2-(1-(1-aminocyclopropyl)(cyclopropyl)methylamino)-4-(1-methyl-1H-indazol-4-ylamino)pyrimidine-5-carboxamide]
12 | 1 to 10 | NC(=O)c1cnc(N[C@H](C2CC2)C2(N)CC2)nc1Nc1cccc(-n2cncn2)c1 [Example 163, (R)-4-(3-(1H-1,2,4-triazol-1-yl)phenylamino)-2-(1-(1-aminocyclopropyl)(cyclopropyl)methylamino)pyrimidine-5-carboxamide]
13 | 10 to 100 | NC(=O)c1cnc(N[C@H](C2CC2)C2(N)CC2)nc1Nc1ccc2scnc2c1 [Example 166, (R)-2-(1-(1-aminocyclopropyl)(cyclopropyl)methylamino)-4-(benzo[d]thiazol-5-ylamino)pyrimidine-5-carboxamide]
14 | 1 to 10 | NC(=O)c1cnc(N[C@H](C2CC2)C2(N)CC2)nc1Nc1ccc2ncsc2c1 [Example 167, (R)-2-(1-(1-aminocyclopropyl)(cyclopropyl)methylamino)-4-(benzo[d]thiazol-6-ylamino)pyrimidine-5-carboxamide]
15 | 100 to 1000 | NC(=O)c1cnc(N[C@@H]2CCCC(F)(F)[C@@H]2N)nc1Nc1cnc2ccccc2c1 [Example 168, 2-((1R,2R)-2-amino-3,3-difluorocyclohexylamino)-4-(quinolin-3-ylamino)pyrimidine-5-carboxamide]
16 | 10 to 100 | NC(=O)c1cnc(N[C@@H]2CCCC(F)(F)[C@@H]2N)nc1Nc1ccc2ncccc2c1 [Example 169, 2-((1R,2R)-2-amino-3,3-difluorocyclohexylamino)-4-(quinolin-6-ylamino)pyrimidine-5-carboxamide]
17 | 100 to 1000 | NC(=O)c1cnc(N[C@H](C2CC2)C2(N)CC2)nc1Nc1ccc(F)cc1 [Example 170, (R)-2-(1-(1-aminocyclopropyl)(cyclopropyl)methylamino)-4-(4-fluorophenylamino)pyrimidine-5-carboxamide]
18 | 1 to 10 | NC(=O)c1cnc(N[C@H](C2CC2)C2(N)CC2)nc1Nc1csc2ncccc12 [Example 171, (R)-2-(1-(1-aminocyclopropyl)(cyclopropyl)methylamino)-4-(thieno[2,3-b]pyridine-3-ylamino)pyrimidine-5-carboxamide]
19 | 10 to 100 | NC(=O)c1cnc(N[C@@H]2CCOC[C@@H]2N)nc1Nc1cnc2ccccc2c1 [Example 177, 2-((3R,4R)-3-aminotetrahydro-2H-pyran-4-ylamino)-4-(quinolin-3-ylamino)pyrimidine-5-carboxamide]
20 | 10 to 100 | NC(=O)c1cnc(N[C@@H]2CCOC[C@@H]2N)nc1Nc1ccc2scnc2c1 [Example 178, 2-((3R,4R)-3-aminotetrahydro-2H-pyran-4-ylamino)-4-(benzo[d]thiazol-5-ylamino)pyrimidine-5-carboxamide]
21 | 10 to 100 | NC(=O)c1cnc(N[C@@H]2CCOC[C@@H]2N)nc1Nc1csc2ncccc12 [Example 179, 2-((3R,4R)-3-aminotetrahydro-2H-pyran-4-ylamino)-4-(thieno[2,3-b]pyridin-3-ylamino)pyrimidine-5-carboxamide]

Row | IC50 [nM] | Compound
22 | 1 to 10 | NC(=O)c1cnc(N[C@@H]2CCOC[C@@H]2N)nc1Nc1ccc2ncccc2c1 [Example 180, 2-((3R,4R)-3-aminotetrahydro-2H-pyran-4-ylamino)-4-(quinolin-6-ylamino)pyrimidine-5-carboxamide]
23 | 10 to 100 | NC(=O)c1cnc(N[C@@H]2CCOC[C@@H]2N)nc1Nc1ccc2ncsc2c1 [Example 181, 2-((3R,4R)-3-aminotetrahydro-2H-pyran-4-ylamino)-4-(benzo[d]thiazol-6-ylamino)pyrimidine-5-carboxamide]
24 | 10 to 100 | NC(=O)c1cnc(Nc2ccccc2)nc1NC1CCC(N)CC1 (centres unmarked) [Example 183, 4-(4-aminocyclohexylamino)-2-(phenylamino)pyrimidine-5-carboxamide]
25 | 10 to 100 | Cc1ccc(Nc2ncc(C(N)=O)c(N[C@H]3CC[C@@H](N)CC3)n2)cc1 [Example 184, 4-(4-aminocyclohexylamino)-2-(p-tolylamino)pyrimidine-5-carboxamide]
26 | 10 to 100 | COc1ccc(Nc2ncc(C(N)=O)c(N[C@H]3CC[C@@H](N)CC3)n2)cc1 [Example 185, 4-(4-aminocyclohexylamino)-2-(4-methoxyphenylamino)pyrimidine-5-carboxamide]
27 | 10 to 100 | NC(=O)c1cnc(Nc2ccc(Cl)cc2)nc1N[C@H]1CC[C@@H](N)CC1 [Example 186, 4-(4-aminocyclohexylamino)-2-(4-chlorophenylamino)pyrimidine-5-carboxamide]
28 | 1 to 10 | Cc1cccc(Nc2nc(N[C@@H]3CC[C@@H](C(=O)N4CCC4)C[C@@H]3N)ncc2C(N)=O)c1 [Example 191, 2-((1R,2S,4R)-2-amino-4-(azetidine-1-carbonyl)cyclohexylamino)-4-(m-tolylamino)pyrimidine-5-carboxamide]
29 | 10 to 100 | Cc1csc(Nc2nc(N[C@H](CC(C)C)C(N)=O)ncc2C(N)=O)c1 [Example 194, (R)-2-(1-amino-4-methyl-1-oxopentan-2-ylamino)-4-(4-methylthiophen-2-ylamino)pyrimidine-5-carboxamide]
30 | 1 to 10 | Cc1csc(Nc2nc(N[C@@H](C(N)=O)C(C)C)ncc2C(N)=O)c1 [Example 195, (R)-2-(1-amino-3-methyl-1-oxobutan-2-ylamino)-4-(4-methylthiophen-2-ylamino)pyrimidine-5-carboxamide]
31 | 100 to 1000 | CC(=O)N[C@H]1CCCC[C@H]1Nc1ncc(C(N)=O)c(Nc2cccc(-n3nccn3)c2)n1 [Example 196]
32 | 100 to 1000 | COC(=O)C(C)(C)c1cccc(Nc2nc(N[C@@H]3CCCC[C@@H]3N)ncc2C(N)=O)c1 [Example 201]
33 | 100 to 1000 | CC(C)(C(=O)O)c1cccc(Nc2nc(N[C@@H]3CCCC[C@@H]3N)ncc2C(N)=O)c1 [Example 203]
34 | 10 to 100 | NC(=O)c1cnc(N[C@@H]2CCCC[C@@H]2N)nc1Nc1cccc(Oc2nc3ccccc3s2)c1 [Example 204]
35 | 100 to 1000 | CC[C@@H](Nc1nc(Nc2cc(C)ns2)ncc1C(N)=O)C(N)=O [Example 205]
36 | 10 to 100 | Cc1cccc(Nc2nc(NCC(N)CC(F)F)ncc2C(N)=O)c1 (centres unmarked) [Example 206]
37 | 100 to 1000 | Cc1ccc(Nc2nc(NC[C@H](C)N)ncc2C(N)=O)cc1 [Example 207]
38 | 10 to 100 | Cn1ccc2c(Nc3nc(N[C@@H]4CCNC4)ncc3C(N)=O)cccc21 [Example 212, (R)-4-((1-methyl-1H-indol-4-yl)amino)-2-(pyrrolidin-3-ylamino)pyrimidine-5-carboxamide]
39 | 10 to 100 | NC(=O)c1cnc(N[C@@H]2CCNC2)nc1Nc1ccc2ncccc2c1 [Example 214, (R)-2-(pyrrolidin-3-ylamino)-4-(quinolin-6-ylamino)pyrimidine-5-carboxamide]
40 | 100 to 1000 | NC(=O)c1cnc(N[C@H]2CCCNC2)nc1Nc1cnc2ccccc2c1 [Example 215, (S)-2-(piperidin-3-ylamino)-4-(quinolin-3-ylamino)pyrimidine-5-carboxamide]
41 | > 1000 | NC(=O)c1cnc(NC2CCNC2=O)nc1Nc1cnc2ccccc2c1 (centres unmarked) [Example 216, 2-((2-oxopyrrolidin-3-yl)amino)-4-(quinolin-3-ylamino)pyrimidine-5-carboxamide]
